In patent US20080014133A1, “Extraction Of Radionuclides By Crown Ether-Containing Extractants” (priority 2004, published 2008):

What was measured:
Type in all cases: physicochemical
[1] = Extraction of cesium under dynamic conditions (7.2)
From the text: (§1) The scheme of the process and the conditions of extraction of cesium by the method according to the invention are similar to those described above in 7.1, but the organic phase for extraction of cesium includes solutions DB21C7 in a concentration of about 0.05 mol/l in an organic solvent containing synthanol in an amount of 5% by volume and Fluoroheptanol n3 in an amount of about 95% by volume.
(§2) During the operation of the experimental facility radiometric monitoring devices were used to control the concentration of strontium in the refined products, re-extracts and reclaims, as well as the concentration of the crown ethers in the extracted products. The technological characteristics of the process and solubility of the crown ether (averaged values of several experiments) are given in Table 16.

[2] = Influence of nitric acid concentration on cesium extraction from solution No.1; conditions: for Distribution ratios of cesium: solution No.1
From the text: The dependence of extraction of cesium by organic solutions DTBDB18C6 in fluoropentanol n3 and DB21C7 in Fluoroheptanol n3 at a concentration of nitric acid in a starting solution was studied. Solution No.1 whose composition is listed in Table 2 was used as a starting solution.

[3] = Concentration of crown ether in extracted products, dynamic cesium extraction (7.2)
From the text: as §1, §2

[4] = Behaviour of crown ether in decane extraction system (Table 1 remarks); conditions: crown ether 0.1 mole/l in Decane
Procedure: (§3) Study was carried out for determining the distribution ratios of radionuclides, for example, strontium or cesium to be extracted by the extractants according to the invention containing various crown ethers as a complexing agent: bis(tert-butylbenzo)-18-crown-6 (subsequently referred to as DTBDB18C6), di-isooctylbenzo-18-crown-6 (subsequently referred to as DIODB18C6), bis(tert-butylcyclohexane-18-crown-6 (subsequently referred to as DTBDCH18C6), di-isooxyldicyclohexane-18-crown-6 (subsequently referred to as DIODCH18C6), bicyclohexane-18-crown-6 (subsequently referred to as DCH18C6) or dibenzo-21-crown-7 (subsequently referred to as DB21C7), in an organic solvent according to the invention: polyfluorinated telomeric alcohol 1,1,7-trihydrododecafluoroheptanol-1 (subsequently referred to as fluoroheptanol n3).
(§4) For comparison, the distribution ratios of strontium and cesium were determined using extractants containing similar crown ethers in another organic solvent (decane).
(§5) Taken for the tests were experimental aqueous nitrate solutions containing strontium and cesium in a concentration of 1 g/l with a content of nitric acid of about 3.0 mol/l.

[5] = Distribution ratio of strontium extracted in organic solutions of crown ethers (Table 1); conditions: crown ether 0.1 mole/l in Fluoroheptanol n3; Sr and Cs 1 g/l, nitric acid about 3.0 mol/l
Procedure: as §3, §4, §5

[6] = Concentration of crown ether in extracted products, dynamic strontium extraction (7.1)
From the text: A starting aqueous solution whose composition and concentration of the components are given in Table 3 for a solution No.1 was contacted with the extractant according to the invention containing 0.05 mole/l of DCH18C6 in a solvent containing 20% by volume of synthanol and 80% by volume of Fluoroheptanol n3 in a continuous countercurrent process on a facility with extractors such as “mixer-settler” devices with impulse agitation and phase transportation. The extraction included eight steps of extraction, two washing steps, eight re-extraction steps and two steps of regeneration of the reused extractant.
When running the facility, radiometric monitoring devices were used to control the concentration of strontium in the refined products, re-extracts and reclaims, as well as the concentration of the crown ethers in the extracted products.

## c1ccc2c(c1)OCCOCCOCCOc1ccccc1OCCOCCO2 [DB21C7, dibenzo-21-crown-7]
[1]; Re-extract
  Content of cesium in the extracted products in percent of the feedstock: 94.5% of the feedstock
[1]; Reclaim
  Content of cesium in the extracted products in percent of the feedstock: 4.15% of the feedstock
[1]; Refined product, 0.05 mol/l DB21C7, Synthanol 5% / Fluoroheptanol n3 95%, solution No.1
  Content of cesium in the extracted products in percent of the feedstock: 1.35% of the feedstock
[1]; dynamic conditions 7.2
  Cesium yield in a saltless product: about 95%
  Extraction of cesium: > 98%
[2]
  Concentration of nitric acid at the maximum of cesium extraction: ~3.0 mol/l
[2]; nitric acid 0 mol/l, Fluoroheptanol n3
  Distribution ratios of cesium: 0.25
[2]; nitric acid 0.1 mol/l
  Distribution ratios of cesium: 1.0
[2]; nitric acid 0.5 mol/l
  Distribution ratios of cesium: 3.2
[2]; nitric acid 1.0 mol/l
  Distribution ratios of cesium: 7.8
[2]; nitric acid 2.0 mol/l
  Distribution ratios of cesium: 10.2
[2]; nitric acid 3.0 mol/l
  Distribution ratios of cesium: 12.2
[2]; nitric acid 4.0 mol/l
  Distribution ratios of cesium: 11.4
[2]; nitric acid 5.0 mol/l
  Distribution ratios of cesium: 10.0
[2]; nitric acid 6.0 mol/l
  Distribution ratios of cesium: 8.0
[2]; nitric acid 7.0 mol/l
  Distribution ratios of cesium: 6.2
[2]; nitric acid 8.0 mol/l
  Distribution ratios of cesium: 5.0
[3]; Re-extract
  Concentration of the crown ether in the extracted products: 53 Mg/l
[3]; Reclaim
  Concentration of the crown ether in the extracted products: 18 Mg/l
[3]; Refined product
  Concentration of the crown ether in the extracted products: 27 Mg/l
[4]
  Remarks: Is insoluble

## C1CCC2OCCOCCOC3CCCCC3OCCOCCOC2C1 (stereo not shown) [DCH18C6, bicyclohexane-18-crown-6]
[5]
  Distribution ratio Strontium: 1.6
[6]; Re-extract
  Concentration of crown ether in the extracted products: 172 Mg/l
[6]; Reclaim
  Concentration of crown ether in the extracted products: 30 Mg/l
[6]; Refined product
  Concentration of crown ether in the extracted products: 80 Mg/l
